US12661316B2, “Creatine and/or creatinine compositions and related methods” (ThermoLife International, LLC, priority 2018, dated 2026)
Where two headings read alike, the source gives them in different places.

Legend:
[1] = cited from earlier work
[2] = Human study: side effects, liver and kidney function (Example 7); type: in vivo
[3] = dosages up to 30 g for a few days; human subject; cited from earlier work
[4] = Chemical stability of creatine nitrate, creatine monohydrate and buffered creatine in pH 2.5 and pH 6.8 buffer; settings: for pH of samples, initial: start of 12 days; for pH of samples, final: within a period of 12 days; for degradation rate constant: about 10 mg/ml
Experimental: The chemical stability of creatine nitrate (CN), creatine monohydrate (CM), and buffered creatine (BC) were examined under two different storage conditions: (1) 37° C. in pH 2.5 buffer and (2) 40° C. in pH 6.8 buffer. A concentration of about 10 mg/ml of CN, CM and BC were prepared in both pH 2.5 and pH 6.8 buffer and stored in stability chambers in screw capped bottles at 37° C. and 40° C., respectively.

[5] = with caffeine intake; cited from earlier work
[6] = cited from earlier work; for creatine degraded: three days of storage at 25° C.
[7] = radiokinetic bioavailability study; cited from earlier work
[8] = dogs; cited from earlier work
[9] = normal human volunteers who had ingested creatinine; cited from earlier work
[10] = injection of creatinine; mice; cited from earlier work
human blood cells = settings: addition of creatinine to human blood cells; cited from earlier work

CN(CC(=O)O)C(=N)N.O [CM, creatine monohydrate]
degradation in solution ([1]; refrigerated): slowed the rate of degradation | degradation in solution ([1]; stored at room temperature): degraded into creatinine within several days | negative side effects (side effect reporting questionnaire) ([2]; in vivo): one subject reported gastrointestinal disturbances | increase of total creatine content in skeletal muscles [3]: more than 20% | pH of samples, initial ([4]; 37° C. in pH 2.5 buffer): 3.08±0.01 | pH of samples, final ([4]; 37° C. in pH 2.5 buffer): 4.12±0.01

CN(CC(=O)O)C(=N)N.O=[N+]([O-])O [CN, creatine nitrate]
negative side effects (side effect reporting questionnaire) ([2]; ten human volunteers, nine did not report any negative side effects): one subject reported gastrointestinal disturbances | degradation rate constant ([4]; 37° C. in pH 2.5 buffer): 0.075±0.001 per day | degradation rate constant ([4]; 40° C. in pH 6.8 buffer): 0.115±0.001 per day | pH of samples, initial ([4]; 40° C. in pH 6.8 buffer): 2.83±0.01 | pH of samples, final ([4]; 40° C. in pH 6.8 buffer): 4.31±0.01

CN(CC(=O)O)C(=N)N [creatine]
ergogenic effect on muscle [5]: completely eliminated | stability in solution ([6]; neutral pH (7.5 or 6.5)): relatively stable | creatine degraded ([6]; pH 3.5): 21% | creatine degraded ([6]; pH 4.5): 12% | creatine degraded ([6]; pH 5.5): 4% | creatine bioavailability [7]: sharply reduced with increasing doses

CN1CC(=O)NC1=N [creatinine]
erythrocyte survival time [8]: significant decrease | red cell lysis [9]: same red cell lysing pattern | behavioural effect [10]: sedating or stupefying effect | spontaneous hemolysis (human blood cells): significant increase in spontaneous hemolysis
